Data set [1] in a line: Dissolution test of Drug 2 dispersions (as in Example 1, with exceptions). Format: physicochemical. The note with it: 2000 μg/mL if all of the drug had dissolved, PBS pH 6.5, 37° C. Here is the method: For this test, samples containing 7.2 mg of the Example 1 dispersion were added to microcentrifuge tubes, in duplicate. The tubes were placed in a 37° C. temperature-controlled chamber, and 1.8 mL PBS at pH 6.5 and having an osmotic pressure of 290 mOsm/kg was added. The samples were mixed using a vortex mixer for about 60 seconds. The samples were centrifuged at 13,000 G at 37° C. for 1 minute. The resulting supernatant solutions were then sampled and diluted 1:6 by volume with methanol and then analyzed by high-performance liquid chromatography (HPLC) at a UV absorbance of 256 nm using a Waters Symmetry C8 column and a mobile phase consisting of 15% (0.2% H3PO4)/85% methanol. The contents of the tubes were mixed on the vortex mixer and allowed to stand undisturbed at 37° C. until the next sample was taken. […]
The solubility and physical properties of the dispersions of Example 4 and Control C2 were determined as in Example 1 with the following exceptions. For measurement of concentration enhancement, sufficient quantities of the dispersion were added to the microcentrifuge tubes such that the concentration if all of the drug had dissolved would be 2000 μg/mL. Samples were analyzed by HPLC, with absorbance at 297 nm (Hewlett Packard 1100 HPLC, Zorbax SB C18 column, 35% acetonitrile/65% H2O). The same properties of a control of crystalline Drug 2 (CD2) alone were also determined.

The nature of data set [2]: Dissolution test of Drug 1 dispersions in PBS (concentration enhancement). The format is physicochemical. The settings on record: PBS pH 6.5, 37° C. The protocol: For this test, samples containing 7.2 mg of the Example 1 dispersion were added to microcentrifuge tubes, in duplicate. The tubes were placed in a 37° C. temperature-controlled chamber, and 1.8 mL PBS at pH 6.5 and having an osmotic pressure of 290 mOsm/kg was added. The samples were mixed using a vortex mixer for about 60 seconds. The samples were centrifuged at 13,000 G at 37° C. for 1 minute. The resulting supernatant solutions were then sampled and diluted 1:6 by volume with methanol and then analyzed by high-performance liquid chromatography (HPLC) at a UV absorbance of 256 nm using a Waters Symmetry C8 column and a mobile phase consisting of 15% (0.2% H3PO4)/85% methanol. The contents of the tubes were mixed on the vortex mixer and allowed to stand undisturbed at 37° C. until the next sample was taken. […] Control 1 and crystalline Drug 1 alone were tested using the same procedure.
The concentrations of drug obtained in these samples were used to determine the value of the maximum concentration of drug in the first ninety minutes (Cmax90) and the area under the curve of drug concentration versus time in the first ninety minutes (AUC90).

Consider two compounds from US7780988B2, “Method for making homogeneous spray-dried solid amorphous drug dispersions using pressure nozzles” (Bend Research, Inc., priority 2002, dated 2010).

The structures appear in SMILES notation.

Usually AUC stands for the area under the concentration-time curve, a measure of exposure.

`O=C(N[C@@H](Cc1ccccc1)[C@@H](O)C(=O)N1C[C@@H](O)[C@@H](O)C1)c1cc2cc(Cl)ccc2[nH]1` [CD2, 5-chloro-1H-indole-2-carboxylic acid [(1S)-benzyl-3-((3R,4S)-dihydroxypyrroldin-1-yl-)-(2R)-hydroxy-3-oxypropyl]amide]: in data set [1], the AUC90 is listed as 12,800 min · μg/mL and the Cmax90 stood at 149 µg/mL.
As to `CCOC(=O)N1c2ccc(C(F)(F)F)cc2C(N(Cc2cc(C(F)(F)F)cc(C(F)(F)F)c2)C(=O)OC)CC1CC` (stereo not drawn) [Crystalline Drug 1, 4-[(3,5-bis-trifluoromethyl-benzyl)-methoxycarbonyl-amino]-2-ethyl-6-trifluoromethyl-3,4-dihydro-2H-quinoline-1-carboxylic acid ethyl ester], the AUC90 in data set [2] (Drug 1, area under the curve of drug concentration versus time in the first ninety minutes) is below 88 µg·min/mL. The Cmax90 in data set [2] (Drug 1, maximum concentration of drug in the first ninety minutes) was below 1 µg/mL. The “Drug 1 Concentration” value in data set [2] (7.2 mg dispersion in 1.8 mL, time 0 min) was 0 µg/mL; in data set [2] (time 4 min), below 1 µg/mL; in data set [2] (time 10 min), below 1 µg/mL; in data set [2] (time 20 min), below 1 µg/mL; in data set [2] (time 40 min), below 1 µg/mL; in data set [2] (time 90 min) it was below 1 µg/mL. In data set [2] (time 1200 min), the “Drug 1 Concentration” value is below 1 µg/mL. Moreover, the exposure (AUC) in data set [2] (elapsed time 0 min) was 0 µg·min/mL; in data set [2] (elapsed time 4 min), below 2 µg·min/mL; in data set [2] (elapsed time 10 min), below 8 µg·min/mL; in data set [2] (elapsed time 20 min) it was below 18 µg·min/mL; in data set [2] (elapsed time 40 min) it was below 38 µg·min/mL; in data set [2] (elapsed time 90 min), below 88 µg·min/mL. For the same compound, the AUC in data set [2] (elapsed time 1200 min) is reported as <1,200 min · μg/mL.
